Results as given in publication PMC12120644, “Modulation of the Inflammatory Process through the Control of Cyclooxygenase Using Peptides Obtained from Lithobates Catesbeianus Identified by Molecular Docking” (ACS Omega, 2025).
“Also recorded” adds a separate entry of the source. No end group written: not given here.

How the values were obtained:
IL-6 = IL-6 immunoassay (ELISA), LPS-stimulated macrophages; format: cell-based, murine; details: LPS 1 μg/mL for 4 h, 1 mM the only significant of 0.025, 0.05, 0.5, and 1 mM, ELISA 405 nm
Experimental: Quantification of IL-6 was determined using the Murine Mini ABTS IL-6 ELISA kit (PeproTech, Cat No. 900-M50), according to the manufacturer’s instructions. The absorbance was measured at 405 nm, and IL-6 concentrations were quantified based on the IL-6 standard curve (0−4000 pg/mL).
5 IL-6 concentration (pg/mL) in macrophages treated at 0.025, 0.05, 0.5, and 1.0 mM peptide 1 and exposure to 1 μg/mL LPS for 4 h. Ctrl-: Negative control (cells + DMEM); Ctrl+: Positive control 1 (cells + DMEM+ and LPS); P1 (cells + DMEM + peptide at different concentrations + LPS). Data (n = 3) are expressed as mean and standard error.

total cyclooxygenase = experiment: COX inhibition assay (total COX activity, LPS-stimulated RAW 264.7); format: cell-based; details: RAW 264.7 stimulated with LPS 1 μg/mL for 4 h, peptide 1 mM, chemiluminescent enzymatic kit (Cayman), vs LPS control, t test P < 0.05
Experimental: The in vitro total cyclooxygenase inhibition was evaluated using a chemiluminescent enzymatic kit (Cayman Chemical, MI), according to the manufacturer’s protocol. The RAW 264.7 cell line was purchased from the American Type Culture Collection (Rockville, MD) and routinely grown in DMEM supplemented with 10% fetal bovine serum (FBS). The cells were subcultured every 3 to 4 days at 1 × 10^8 cells/mL. The positive control group was exposed to lipopolysaccharide (LPS) at 1 μg/mL for 4 h to induce inflammation. Cells were collected and centrifuged at 600g for 10 min at 4 °C. The supernatant was carefully removed and cells were resuspended in 2 mL of DMEM, resulting in 1 × 10^8 cells/mL.
4 Effect of SGHPGAMGPVGPR (P1), IGPAGSAGSR (P2), GPSGPAGARGDK (P3), and […] (P4) peptides on the total COX activity. The RAW 264.7 cells were subcultured at 1 × 10^8 cells/mL density and stimulated with LPS at 1 μg/mL for 4 h. Cells were collected by centrifugation at a speed of 2.000 rpm for 10 min at 4 °C and were resuspended in DMEM. After that, cells were treated with the peptides, and ELISA was performed. Significant by the t test (P < 0.05). CTRL: control (cells stimulated with LPS).

Q: Which results are given for SGHPGAMGPVGPR [Peptide P1]?
A: IL-6 levels (in words) (IL-6; n = 3): downregulating IL-6 expression; also recorded: significantly downregulated IL-6 levels in a dose-dependent manner; IL-6 levels (in words) (IL-6; n = 3, listed as peptide 1): best results in decreasing the cells’ total COX and IL-6 cytokines; total COX activity (in words) (total cyclooxygenase): effectively inhibiting total COX activity; also recorded: only peptide P1 exhibited an inhibitory capacity on the total COX activity; also recorded: only P1 demonstrated the ability to reduce the total COX activity; total COX activity (in words) (total cyclooxygenase; listed as peptide 1): best results in decreasing the cells’ total COX
